Measured values: patent publication US12157730B2, “Heteroaryl derivative, method for producing same, and pharmaceutical composition comprising same as effective component” (VORONOI INC., priority 2019, dated 2024)

Target: T1, Ba/F3 cell EGFR Exon20 ins NPH (Homo sapiens, UniProt P00533, INS773NPH)
T1 construct: expressed in transfected cells; host or cells: Ba/F3
Assay: Ba/F3 cell proliferation suppression, EGFR Exon20 ins NPH
Type: cell-based
Details: GI50 class; Ba/F3 cell line with NPH inserted at Exon20 of EGFR; 72 hours
Procedure, shortened: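 Cells (3000–5000/well) plated 24 h before compound, 12-point 3-fold dilutions at 0.3 nM to 50 um final; Ba/F3 lines grown with 5 ng/ml IL-3. Viability by CellTiter-Glo luminescence after 72 h, growth ratio vs control, GI50 from curves; triplicate.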

Ba/F3 (NPH) Activity | Molecule
B (50 nM ≤ GI50 < 500 nM) | C=CC(=O)Nc1cc(Nc2cc(N3OCC[C@@H]3c3cccc(Cl)c3Cl)ncn2)c(OC)cc1N1C[C@@H]2C[C@H]1CO2 [compound 522, N-(2-((1S,4S)-2-oxa-5-azabicyclo[2.2.1]heptane-5-yl)-5-((6-((R)-3-(2,3-dichlorophenyl)isoxazolidine-2-yl)pyrimidine-4-yl)amino)-4-methoxyphenyl) acrylamide]
B (50 nM ≤ GI50 < 500 nM) | C=CC(=O)Nc1cc(Nc2cc(N3OCC[C@@H]3c3cccc(Cl)c3)ncn2)c(OC)cc1N1CCN(C2CC2)CC1 [compound 463, N-(5-((6-((R)-3-(3-chlorophenyl)isoxazolidine-2-yl)pyrimidine-4-yl)amino)-2-(4-cyclopropylpiperazine-1-yl)-4-methoxyphenyl) acrylamide]
A (GI50 < 50 nM) | C=CC(=O)Nc1cc(Nc2cc(N3OCC[C@@H]3Cc3ccccc3)ncn2)c(OC)cc1N1CCN(C2COC2)CC1 [compound 958, N-(5-((6-((S)-3-benzylisoxazolidine-2-yl)pyrimidine-4-yl)amino)-4-methoxy-2-(4-(oxetane-3-yl)piperazine-1-yl)phenyl)acrylamide]
A (GI50 < 50 nM) | C=CC(=O)Nc1cc(Nc2cc(N3OCC[C@@H]3c3ccccc3)ncn2)c(OC)cc1N1C[C@H]2C[C@@H]1CO2 [Example 33, N-(2-((1R,4R)-2-oxa-5-azabicyclo [2.2.1]heptane-5-yl)-4-methoxy-5-((6((R)-3-phenylisoxazolidine-2-yl)pyrimidine-4-yl)amino)phenyl) acrylamide]
A (GI50 < 50 nM) | C=CC(=O)Nc1cc(Nc2cc(N3OCC[C@@H]3c3cc(F)ccc3F)ncn2)c(OC)cc1N1CCC(N2CCOCC2)CC1 [compound 766, N-(5-((6-((R)-3-(2,5-difluorophenyl)isoxazolidine-2-yl)pyrimidine-4-yl)amino)-4-methoxy-2-(4-morpholinopiperidine-1-yl)phenyl)acrylamide]
A (GI50 < 50 nM) | C#Cc1cccc([C@H]2CCON2c2cc(Nc3cc(NC(=O)C=C)c(N4CCN(CC)CC4)cc3OC)ncn2)c1 [compound 648, N-(2-(4-ethylpiperazine-1-yl)-5-((6-((R)-3-(3-ethynylphenyl)isoxazolidine-2-yl)pyrimidine-4-yl)amino)-4-methoxyphenyl) acrylamide]
B (50 nM ≤ GI50 < 500 nM) | C=CC(=O)Nc1cc(Nc2cc(N3OCC[C@@H]3c3cccc4ccccc34)ncn2)c(OC)cc1N1CCN(C)CC1 [compound 441, N-(4-methoxy-2-(4-methylpiperazine-1-yl)-5-((6-((R)-3-(naphthalene-1-yl)isoxazolidine-2-yl)pyrimidine-4-yl)amino)phenyl) acrylamide]
A (GI50 < 50 nM) | C=CC(=O)Nc1cc(Nc2cc(N3OCC[C@@H]3c3ccc(Cl)cc3F)ncn2)c(OC)cc1N1CC[C@@H](N(C)C)C1 [compound 456, N-(5-((6-((R)-3-(4-chloro-2-fluorophenyl)isoxazolidine-2-yl)pyrimidine-4-yl)amino)-2-((R)-3-(dimethylamino)pyrolidine-1-yl)-4-methoxyphenyl) acrylamide]
A (GI50 < 50 nM) | C=CC(=O)Nc1cc(Nc2cc(N3OCC[C@@H]3c3ccccc3)ncn2)c(OC)cc1N1CCC(N2CCN(C3CCCC3)CC2)CC1 [Example 97, N-(2-(4-(4-cyclopentylpiperazine-1-yl)piperidine-1-yl)-4-methoxy-5-((6-((R)-3-phenylisoxazolidine-2-yl)pyrimidine-4-yl)amino)phenyl) acrylamide]
C (500 nM ≤ GI50 < 5000 nM) | C=CC(=O)Nc1cc(Nc2cc(N3OCC[C@H]3c3c(F)cccc3F)ncn2)c(OC)cc1N1C[C@@H]2CCN(C)[C@@H]2C1 [compound 899, N-(5-((6-((S)-3-(2,6-difluorophenyl)isoxazolidine-2-yl)pyrimidine-4-yl)amino)-4-methoxy-2-((3aS,6aS)-1-methylhexahydropyrrolo [3,4-b]pyrrole-5(1H)-yl)phenyl) acrylamide]
B (50 nM ≤ GI50 < 500 nM) | C=CC(=O)Nc1cc(Nc2cc(N3OCC[C@@H]3c3cccc4ccccc34)ncn2)c(OC)cc1N1CCC(N2CCN(CC)CC2)CC1 [compound 484, N-(2-(4-(4-ethylpiperazine-1-yl)piperidine-1-yl)-4-methoxy-5-((6-((R)-3-(naphthalene-1-yl)isoxazolidine-2-yl)pyrimidine-4-yl)amino)phenyl)acrylamide]
A (GI50 < 50 nM) | C=CC(=O)Nc1cc(Nc2cc(N3OCC[C@@H]3c3cc(F)ccc3F)ncn2)c(OC)cc1N1CCN(C2COC2)CC1 [compound 881, N-(5-((6-((R)-3-(2,5-difluorophenyl)isoxazolidine-2-yl)pyrimidine-4-yl)amino)-4-methoxy-2-(4-(oxetane-3-yl)piperazine-1-yl)phenyl) acrylamide]
A (GI50 < 50 nM) | C=CC(=O)Nc1cc(Nc2cc(N3OCC[C@@H]3c3ccc(F)cc3F)ncn2)c(OC)cc1N1CCC(N2C[C@H]3C[C@@H]2CN3CC)CC1 [compound 425, N-(5-((6-((R)-3-(2,4-difluorophenyl)isoxazolidine-2-yl)pyrimidine-4-yl)amino)-2-(4-((1R,4R)-5-ethyl-2,5-diazabicyclo [2.2.1]heptane-2-yl)piperidine-1-yl)-4-methoxyphenyl) acrylamide]

Second part, the molecule before the results:

Molecule | Ba/F3 (NPH) Activity
C=CC(=O)Nc1cc(Nc2cc(N3OCC[C@@H]3Cc3cccc(F)c3)ncn2)c(OC)cc1N1CCC(N2CCN(C3CC3)[C@@H](C)C2)CC1 [compound 993, N-(2-(4-((S)-4-cyclopropyl-3-methylpiperazine-1-yl)piperidine-1-yl)-5-((6-((S)-3-(3-fluorobenzyl)isoxazolidine-2-yl)pyrimidine-4-yl)amino)-4-methoxyphenyl) acrylamide] | A (GI50 < 50 nM)
N-(5-((6-((R)-3-(3,4- difluorophenyl) isoxazolidine-2-yl) pyrimidine-4-yl)amino)- 2-(4-((S)-3- (dimethylamino) pyrolidine-1-yl) piperidine-1-yl)-4- methoxyphenyl) acrylamide [compound 500] | A (GI50 < 50 nM)
C=CC(=O)Nc1cc(Nc2cc(N3OCC[C@@H]3c3cc(F)ccc3F)ncn2)c(OC)cc1N1CCC(N2C[C@@H](C)N(C3CC3)C[C@@H]2C)CC1 [Example 174, N-(2-(4-((2S,5R)-4-cyclopropyl-2,5-dimethylpiperazine-1-yl)piperidine-1-yl)-5-((6-((R)-3-(2,5-difluorophenyl)isoxazolidine-2-yl)pyrimidine-4-yl)amino)-4-methoxyphenyl) acrylamide] | A (GI50 < 50 nM)
C#Cc1cccc([C@H]2CCON2c2cc(Nc3cc(NC(=O)C=C)c(N4CCC(N5C[C@@H](C)O[C@@H](C)C5)CC4)cc3OC)ncn2)c1 [compound 651, N-(2-(4-((2S,6R)-2,6-dimethylmorpholino)piperidine-1-yl)-5-((6-((R)-3-(3-ethynylphenyl)isoxazolidine-2-yl)pyrimidine-4-yl)amino)-4-methoxyphenyl) acrylamide] | A (GI50 < 50 nM)
C=CC(=O)Nc1cc(Nc2cc(N3OCC[C@@H]3c3cccc(F)c3Cl)ncn2)c(OC)cc1N(C)CCN(C)C [compound 551, N-(5-((6-((R)-3-(2-chloro-3-fluorophenyl)isoxazolidine-2-yl)pyrimidine-4-yl)amino)-2-((2-(dimethylamino)ethyl)(methyl)amino)-4-methoxyphenyl) acrylamide] | A (GI50 < 50 nM)
C=CC(=O)Nc1cc(Nc2cc(N3OCC[C@@H]3c3ccc(Cl)c(Cl)c3F)ncn2)c(OC)cc1N1CCC(N2C[C@@H]3C[C@H]2CO3)CC1 [compound 770, N-(2-(4-((1S,4S)-2-oxa-5-azabicyclo [2.2.1]heptane-5-yl)piperidine-1-yl)-5-((6-((R)-3-(3,4-dichloro-2-fluorophenyl)isoxazolidine-2-yl)pyrimidine-4-yl)amino)-4-methoxyphenyl) acrylamide] | A (GI50 < 50 nM)
C=CC(=O)Nc1cc(Nc2cc(N3OCC[C@@H]3c3ccc(F)cc3)ncn2)c(OC)cc1N(C)CCN(C)C [Example 39, N-(2-((2-(dimethylamino)ethyl)(methyl)amino)-5-((6-((R)-3-(4-fluorophenyl)isoxazolidine-2-yl)pyrimidine-4-yl)amino)-4-methoxyphenyl) acrylamide] | A (GI50 < 50 nM)
C=CC(=O)Nc1cc(Nc2cc(N3OCC[C@@H]3Cc3ccc(C(F)(F)F)cc3)ncn2)c(OC)cc1N1CCC(N2C[C@@H]3C[C@H]2CO3)CC1 [compound 1052, N-(2-(4-((1S,4S)-2-oxa-5-azabicyclo [2.2.1]heptane-5-yl)piperidine-1-yl)-4-methoxy-5-((6-((S)-3-(4-(trifluoromethyl)benzyl)isoxazolidine-2-yl)pyrimidine-4-yl)amino)phenyl) acrylamide] | A (GI50 < 50 nM)
C=CC(=O)Nc1cc(Nc2cc(N3OCC[C@@H]3c3ccc(Cl)c(Cl)c3)ncn2)c(OC)cc1N1CCC(N2C[C@@H]3C[C@H]2CO3)CC1 [compound 688, N-(2-(4-((1S,4S)-2-oxa-5-azabicyclo[2.2.1]heptane-5-yl)piperidine-1-yl)-5-((6-((R)-3-(3,4-dichlorophenyl)isoxazolidine-2-yl)pyrimidine-4-yl)amino)-4-methoxyphenyl) acrylamide] | A (GI50 < 50 nM)
C=CC(=O)Nc1cc(Nc2cc(N3OCC[C@@H]3Cc3cccnc3)ncn2)c(OC)cc1N1CCC(N2C[C@H]3C[C@@H]2CO3)CC1 [compound 987, N-(2-(4-((1R,4R)-2-oxa-5-azabicyclo [2.2.1]heptane-5-yl)piperidine-1-yl)-4-methoxy-5-((6-((S)-3-(pyridine-3-ylmethyl)isoxazolidine-2-yl)pyrimidine-4-yl)amino)phenyl)acrylamide] | C (500 nM ≤ GI50 < 5000 nM)
